Measurements reported in patent US20070254309A1, “Methods for Assessing Embryo Viability” (Northern Sydney and Central Coast Area Health Service, priority 2006, published 2007).

System: p53
Assay: Western blot quantitation of p53 released into embryo culture media
Type: cell-based, mouse
Details: embryos cultured in modHTF in the absence of Paf, compared with 0.1 μM Paf supplement; FIG. 3
Procedure: Embryos were collected and washed 3 times in cold PBS and transferred in a maximum volume of 1.5 μl PBS. Embryo culture media aliquots had embryos and all cells removed and then subjected to freeze drying. The lyophilized proteins were redissolved in 1.5 μl of water. Embryo or reconstituted culture media was mixed with 1.5 μl of 2X extraction buffer (2X PBS, 2% Triton X-100, 24 mM deoxycholic acid, 0.2% sodium dodecyl sulfate, 20 mM NaF, 20 mM Na4P2O7, 2 mM PMSF, 3.08 μM Aprotinin, 42 μM Leupeptin and 2.91 μM Pepstatin A-all from Sigma). The embryos were lysed by three cycles of freezing in liquid nitrogen and thawing (with vortexing). […]
Proteins were blotted into PVDF membranes (Hybond-P, Amersham Pharmacia) in a semi-dry blotting apparatus overnight using transfer buffer (12 mM Tris PH 7.0, 96 mM Glycine and 20% methanol). […] Membranes were probed with 1:500 diluted anti P53 antibody overnight at 4° C. in 2.5% skim milk, and detected with 1:500 diluted horse radish peroxidase (Jackson ImmunoResearch Laboratories, West Grove, Pa., USA) conjugated mouse antibody. […]
p53 was detected by Western blot as described above and densitometry was performed using Scion Image software (Scion Corporation, Frederick, Md., USA).

Substance: 1-o-octadecyl/hexadecyl-2-acetyl-sn-glycero-3-phosphocholine [Paf]
- extra-embryonic concentration of p53: higher
